The values below come from ChEMBL document CHEMBL1128837, “The evaluation of 2- and 6-substituted carbocyclic nucleosides as building blocks for antisense oligonucleotides” (Bioorg Med Chem Lett, 1995).

Bounds are passed on as bounds.

As usually defined, the Tm is the temperature at the midpoint of the melting transition.

The nature of test [1]: Difference in melting temperature (Tm) between the modified DNA/RNA duplex and the unmodified wild type (WT) duplex per modification at 61.7 degree Celsius (5'-CTCGTACttttCCGGTCC-3'). Type of test: functional.
The nature of test [2]: Difference in melting temperature (Tm) between the modified DNA/RNA duplex and the unmodified wild type (WT) duplex per modification at 63.9 degree Celsius (5'-CTCGTACCtTTCCGGTCC-3'). Type of test: functional.
A short description of test [3]: Ratio of effect of compound on the nuclease resistance of full length oligonucleotide to that of wild type in 10% heat-activated fetal calf serum (FCS). Type of test: functional.
Test [4] in a line: Difference in melting temperature (Tm) between the modified DNA/RNA duplex and the unmodified wild type (WT) duplex per modification at 48 degree Celsius (5'-GCGttttttttttGCG-3'). Type of test: functional.
A short description of test [5]: Difference in melting temperature (Tm) between the modified DNA/RNA duplex and the unmodified wild type (WT) duplex per modification at 52.3 degree Celsius (5'-TTTTtCTCTCTCTCT-3'). Type of test: functional.
A short description of test [6]: Effect of compound on the nuclease resistance of 5'-d(TCC AGG TGT CCG TTT C)-3' in 10% heat-activated fetal calf serum (FCS) expressed as t1/2. Type of test: functional.
Test [7] can be described thus: Difference in melting temperature (Tm) between the modified DNA/RNA duplex and the unmodified wild type (WT) duplex per modification at 61.8 degree Celsius (5'-tCCAGGtGtCCGCAtC-3'). Type of test: functional.
Test [8] is described as follows: Effect of compound on the nuclease resistance of wild type 5'-d(TCC AGG TGT CCG TTT C)-3' in 10% heat-activated fetal calf serum (FCS) expressed as t1/2. Type of test: functional.
Test [9] is described as follows: Difference in melting temperature (Tm) between the modified DNA/RNA duplex and the unmodified wild type (WT) duplex per modification at 52.3 degree Celsius (5'-tttttctctctctT-3'). Type of test: functional.
A short description of test [10]: Difference in melting temperature (Tm) between the modified DNA/RNA duplex and the unmodified wild type (WT) duplex per modification at 63.9 degree Celsius (5-ctcGtacctttccGGtcC-3. Type of test: functional.
Test [11] can be described thus: Stability against degradation by 3'-exonucleases for the sequence 5'-d(TCC AGG TGT CCG TTT C)-3' in 10% heat-activated fetal calf serum (FCS). Type of test: functional.
Test [12] can be described thus: Melting temperature (Tm) of the modified DNA/RNA duplex at 48 degree Celsius (5'-GCGttttttttttGCG-3').
Test [13] can be described thus: Difference in melting temperature (Tm) between the modified DNA/RNA duplex and the unmodified wild type (WT) duplex per modification at 52.3 degree Celsius (5-tttttc*tc*tc*tc*tc*T-3). Type of test: functional.
A short description of test [14]: Melting temperature (Tm) of the modified DNA/RNA duplex at 48 degree Celsius (5'-GCGtttttttttGCG-3'); No cooperative melting observed.
A short description of test [15]: Difference in melting temperature (Tm) between the modified DNA/RNA duplex and the unmodified wild type (WT) duplex per modification at 52.3 degree Celsius (5-tttttC*tc*tc*tc*tc*T-3). Type of test: functional.

With `CO[C@H]1[C@H](CO)[C@@H](O)C[C@@H]1n1cc(C)c(=O)[nH]c1=O`, the ΔTm in test [1] was -0.7; in test [2], 0.2; in [4], -0.9; in [5], -2; in [7] it was -1.3. Moreover, the Ratio in test [3] was found to be 10. Also, the T1/2 was found to be 20 h in test [6] and 2 h in [8].
`Cc1cn([C@H]2C[C@H](O)[C@@H](CO)O2)c(=O)[nH]c1=O`: the ΔTm in [9] was 0.4; in test [10], 0.3; in test [2], 0.2; in test [4], 0.25; in [11], 2.5.
As for `Cc1cn([C@H]2C[C@H](O)[C@@H](CO)[C@@H]2OCCCCN)c(=O)[nH]c1=O`, the ΔTm in [2] was -1.8; in test [4] it was -1.9; in test [5], -1.1; in [7] it was -1.4. Moreover, the Ratio in test [3] was greater than 24. Moreover, the T1/2 in test [6] is greater than 48 h; in [8], 2 h.
In the case of `CO[C@@H]1[C@H](O)[C@@H](CO)C[C@H]1n1cc(C)c(=O)[nH]c1=O`, the ΔTm in [1] was -0.7; in [2], -1.9; in test [4], -1; in test [5], 1.1.
As for `COCCOCCOCCO[C@@H]1[C@H](O)[C@@H](CO)C[C@H]1n1cc(C)c(=O)[nH]c1=O`, the ΔTm in test [1] was -2.6; in test [2] it was -2.9; in test [5], 0.2; in [7], -1.1. Besides, in test [12], the Tm was less than 20 °C.
In the case of `Cc1cn([C@H]2C[C@H](O)[C@@H](CO)[C@@H]2O)c(=O)[nH]c1=O`, the ΔTm is 0.2 in [1]; 0.4 in test [13]; 0.8 in test [4]; -0.8 in test [5]; -0.4 in test [7]. In addition, the Ratio in test [3] amounted to 7. Also, the T1/2 in [6] came to 14 h; in test [8], 2 h.
Take `Cc1cn([C@H]2C[C@H](O)[C@@H](CO)[C@@H]2OCCCc2ccccc2)c(=O)[nH]c1=O`: the Tm in test [14] and in test [12] was less than 20 °C throughout. Moreover, the ΔTm in test [1] is -1.7; in test [2], -2.8; in [5], -4; in test [7], -2.8. For the same compound, the Ratio in [3] is greater than 24. For the same compound, the results for the T1/2 in test [6] and in test [8] were greater than 48 h and 2 h, respectively.
Consider `COCCOCCO[C@H]1[C@H](CO)[C@@H](O)C[C@@H]1n1cc(C)c(=O)[nH]c1=O`, for which the values for the ΔTm in test [5] and in test [15] were -1.8 and -1.9, respectively.
